The values below come from ChEMBL document CHEMBL1134943, “Synthesis and biological activity of retinoic acid receptor-alpha specific amides” (Bioorg Med Chem Lett, 2002).

Test [1] addresses T1, Retinoic acid receptor alpha (Homo sapiens, UniProt P10276).
T1 sequence (P10276 whole entry): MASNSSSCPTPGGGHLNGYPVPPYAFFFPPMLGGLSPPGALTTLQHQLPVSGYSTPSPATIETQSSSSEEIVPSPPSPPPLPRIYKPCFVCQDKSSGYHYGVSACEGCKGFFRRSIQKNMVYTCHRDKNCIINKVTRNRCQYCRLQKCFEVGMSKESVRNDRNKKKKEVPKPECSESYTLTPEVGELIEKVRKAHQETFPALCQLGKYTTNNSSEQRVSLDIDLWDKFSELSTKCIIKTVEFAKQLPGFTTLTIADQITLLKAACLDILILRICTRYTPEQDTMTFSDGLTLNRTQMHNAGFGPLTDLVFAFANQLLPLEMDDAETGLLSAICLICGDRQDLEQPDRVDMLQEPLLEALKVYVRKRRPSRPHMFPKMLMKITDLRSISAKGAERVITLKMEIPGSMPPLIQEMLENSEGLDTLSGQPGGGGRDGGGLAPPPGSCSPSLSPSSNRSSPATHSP
Nature of the test: Binding affinity fo retinoic acid receptor RAR alpha.

The target of test [2] is T1, Retinoic acid receptor alpha. Nature of the test: Effective concentration for retinoic acid receptor RAR alpha transcriptional activation. In kind it is functional.
The target of test [3] is T2, Retinoic acid receptor beta (Homo sapiens) (UniProt P10826).
T2 sequence (whole entry): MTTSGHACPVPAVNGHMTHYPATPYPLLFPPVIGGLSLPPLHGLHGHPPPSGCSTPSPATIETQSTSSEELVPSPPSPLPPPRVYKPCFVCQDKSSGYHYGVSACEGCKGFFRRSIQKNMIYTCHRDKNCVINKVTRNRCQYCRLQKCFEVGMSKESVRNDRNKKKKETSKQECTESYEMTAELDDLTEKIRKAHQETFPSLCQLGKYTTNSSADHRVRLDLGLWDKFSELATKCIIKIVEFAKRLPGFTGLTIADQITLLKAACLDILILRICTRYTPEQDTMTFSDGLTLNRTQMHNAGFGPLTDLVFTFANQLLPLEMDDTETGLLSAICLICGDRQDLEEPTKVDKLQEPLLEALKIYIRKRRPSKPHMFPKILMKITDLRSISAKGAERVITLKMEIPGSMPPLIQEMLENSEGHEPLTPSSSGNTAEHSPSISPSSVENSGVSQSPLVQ
Nature of the test: Percent transcriptional activation of RAR beta compared to […]. In kind it is functional.

The target of test [4] is T3, Retinoic acid receptor beta (Homo sapiens, UniProt P10826).
T3 sequence (P10826 whole entry): T2 sequence (whole entry)
Nature of the test: Binding affinity for retinoic acid receptor RAR beta.

For test [5], the target named is T3, Retinoic acid receptor beta. Briefly: Effective concentration for retinoic acid receptor RAR beta transcriptional activation. In kind it is functional.
Test [6] deals with T4, Retinoic acid receptor gamma (Homo sapiens, UniProt P13631).
T4 sequence (P13631 whole entry): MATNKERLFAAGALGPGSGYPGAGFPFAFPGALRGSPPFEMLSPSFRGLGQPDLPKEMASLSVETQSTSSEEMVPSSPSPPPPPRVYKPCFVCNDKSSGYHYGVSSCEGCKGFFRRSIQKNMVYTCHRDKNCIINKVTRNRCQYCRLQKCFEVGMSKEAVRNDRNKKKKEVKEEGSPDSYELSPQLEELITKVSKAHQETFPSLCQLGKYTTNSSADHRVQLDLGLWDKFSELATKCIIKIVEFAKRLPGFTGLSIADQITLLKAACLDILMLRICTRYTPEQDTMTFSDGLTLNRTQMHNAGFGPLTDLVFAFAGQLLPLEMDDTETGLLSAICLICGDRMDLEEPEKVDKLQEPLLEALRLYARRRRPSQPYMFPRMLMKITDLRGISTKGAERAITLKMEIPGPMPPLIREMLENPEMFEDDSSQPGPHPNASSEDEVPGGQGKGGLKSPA
Briefly: Binding affinity for retinoic acid receptor RAR gamma.

In test [7] the target is T4, Retinoic acid receptor gamma. Briefly: Effective concentration for retinoic acid receptor RAR gamma transcriptional activation. Format: functional.
The target in test [8] is T5, Retinoic acid receptor gamma (Homo sapiens) (UniProt P13631).
T5 sequence (whole entry): T4 sequence (P13631 whole entry)
Briefly: Percent transcriptional activation of RAR gamma compared to 1 µM ATRA.

Test [9] deals with T5, Retinoic acid receptor gamma (Homo sapiens). The note with it: 1 mM.
Test [10] concerns the target T2, Retinoic acid receptor beta (Homo sapiens). Briefly: Percent transcriptional activation of RAR beta compared to […]; NA indicates […]. Format: functional.
For test [11], the target named is T6, Retinoic acid receptor alpha (Homo sapiens) (UniProt P10276).
T6 sequence (whole entry): T1 sequence (P10276 whole entry)
Nature of the test: Percent transcriptional activation of RAR alpha compared to […]. Format: functional.

The target of test [12] is T7, Retinoic acid receptor alpha (Mus musculus) (UniProt P11416).
T7 sequence (whole entry): T1 sequence (P10276 whole entry) with T43S, E150D, V169A, R347K, P427S, G431T, N453H, H460Q
Nature of the test: Topical irritation induced by RAR alpha-selective retinoid Am-580 in mice. In kind it is functional.

Test [13] deals with SK-BR-3. Briefly: Inhibition of ER-negative human breast cancer cell SK-BR-3 proliferation. In kind it is functional, cell-based.
Test [14] deals with SK-BR-3. Nature of the test: Percent inhibition of BrdU incorporation into SK-BR-3 cells. In kind it is functional, Homo sapiens.
The test system of test [15] is T47D. Nature of the test: Percent inhibition of BrdU incorporation into T-47D cells. Format: functional, Homo sapiens.
Test [16] has as its system T47D. Briefly: Inhibition of ER positive human breast cancer cell T-47D proliferation. Format: functional, cell-based.

SMILES strings stand for the structures. Numbering of substitutions follows the chain as printed. The source made the active and inactive calls. The calls are words filed in the database; no cut-off is given here. A value given as a limit tells only on which side of the number the result lay.

Turning to `CC1(C)CCC(C)(C)c2cc(C(=O)Nc3cc(F)c(C(=O)O)c(F)c3)c(O)cc21`, the Kd in test [1] was 0.003 µM; in test [4], over 100 µM; in test [6], 5.6 µM. The EC50 was 0.112 µM in test [2], over 1 µM in test [5] and over 1 µM in test [7]. The Efficacy in [3] and in [8] was 10% in each case.

Regarding `CC1(C)CCC(C)(C)c2cc(C(=O)Nc3ccc(C(=O)O)c(F)c3)ccc21`, the results for the Kd in [1], in test [4] and in test [6] were 0.002 µM, 0.38 µM and 0.99 µM, respectively. The concentration for a half-maximal effect (EC50) was 0.008 µM in test [2], 0.045 µM in [5] and 0.35 µM in [7]. Moreover, the figures for the Efficacy in test [3] and in test [8] were 78% and 85%, respectively.

As to `CC1(C)CCC(C)(C)c2cc(C(=O)Nc3cc(F)c(C(=O)O)c(F)c3)ccc21`, the values for the Kd in test [1], in test [4] and in test [6] were 0.007 µM, 1.47 µM and 5.6 µM, respectively. In addition, the EC50 in test [2] was 0.094 µM; in test [5], over 1 µM. The compound also registered an Efficacy in test [3] of 25%. The Efficacy result in test [9] was “inactive”.

As to `CC1(C)CCC(C)(C)c2c1cc(C(=O)Nc1cc(F)c(C(=O)O)c(F)c1)c(O)c2Br`, the Kd in test [1] is 0.004 µM; in test [4], 6.4 µM; in [6] it was over 100 µM. In test [2], this compound returned an EC50 of 0.29 µM. For the same compound, the Efficacy result in test [10] and in [9] was “inactive” each time.

With `CC1(C)CCC(C)(C)c2c1cc(C(=O)Nc1cc(F)c(C(=O)O)c(F)c1)c(O)c2Cl` [NRX195183], the Kd in [1] is 0.003 µM; in [4], over 100 µM; in test [6], over 100 µM. The EC50 in [2] came to 0.2 µM. The Efficacy was 80% in [11], 93% in the test with SK-BR-3 [14] and 57% in the test on T47D [15]. The Efficacy result in [10] and in [9] was “inactive” each time. In [12], the Topical irritation score(0-21) was 0. In addition, the IC50 in the test on SK-BR-3 [13] amounted to 0.011 µM; with T47D [16] it was 0.0014 µM.

`CC1(C)CCC(C)(C)c2cc(C(=O)Nc3ccc(C(=O)O)cc3)ccc21`: the Efficacy in test [3] is 105%; in test [8], 80%. Further, in test [12], the Topical irritation score(0-21) turned out to be 16.

With `CC1=C(/C=C/C(C)=C/C=C/C(C)=C/C(=O)O)C(C)(C)CCC1` [TRETINOIN], the IC50 with SK-BR-3 [13] was determined as 0.0017 µM; in the test on T47D [16], 0.2 µM. Further, the values for the Efficacy with SK-BR-3 [14] and with T47D [15] were 99% and 74%, respectively.

As a reminder, the Kd is the constant that tells how readily two partners part at equilibrium. A lower Kd goes with tighter binding. As a reminder, the EC50 is the concentration at which the effect is half-maximal. A higher EC50 goes with a less potent agent. Broadly, the IC50 is the concentration that gives 50% inhibition.
